Patent publication US11185544B2, “Formulations of 4-methyl-5-(pyrazin-2-yl)-3H-l,2-dithiole-3-thione, taste-modified formulations, and methods of making and using same” (ST IP Holding AG, priority 2016, dated 2021)

Tests used:
[1] = tested on: primary human gingival epithelial cells (HGEPp); test: cells; conditions: Epithelial cell, 4 h, read-out: IC50 of H2O2 in HGEPp cells
Method: Pooled primary HGEPps were propagated in CnT-Prime epithelial culture medium provided by CellnTec on 100 mm petri dishes coated with 30 mg/ml Type I rat tail collagen (BD Biosciences) diluted in Dulbecco's phosphate-buffered saline (DPBS). […] The cells were harvested when they reached 70-90% confluency as observed by light microscopy. For routine cultivation, the medium was changed every 3 days. For both the cell viability and ROS assays, the cells from passages 3-7 were seeded at 5×0 3, 2.5×10 4, 5×0 4 cells/cm 2 density to grow cell monolayers in 24-well flat-bottomed tissue culture plates and acclimated overnight at 37° C. […]
Cell Survival Assay (TACS MTT Kit) • 1. Plate cell concentration was selected to be 6.25×10^5/ml to yield an OD absorbance within the linear portion of the control curve. • 2. Once the HGEPp cells were cultured and ready on the microplate, the media was removed from all the wells and discarded. […] Removed the plate cover and measured the absorbance of the wells, including the blanks at 570 nm. • 8. Determined the average values from triplicate readings after subtracting the average value for the blanks.
HGEPp cells were exposed to different concentrations of H2O2 for 4 h to examine H2O2-induced oxidative stress. The cells were exposed to 0-0.6 mM H2O2 for 4 h and cell viability was evaluated using the TACS MTT Cell Proliferation Assay Kit. […]

[2] = tested on: reactive oxygen species (ROS) in HGEPp cells; conditions: H2O2-treated cells, 0.3 mM for 4 h
From the text: 2. measure the effect of recrystallized oltipraz amd formulated oltipraz on hydroxyl, peroxyl and other reactive oxygen species within HGEPp cells, using Cell Biolabs' OxiSelect™ Intracellular ROS Assay Kit. This assay employs the cell-permeable fluorogenic probe 2′,7′-dichlorodihydrofluorescein diacetate (DCFH-DA) which diffuses into cells and is deacetylated by cellular esterases to a nonfluorescent DCFH which is then rapidly oxidized to highly fluorescent 2′,7′-dichlorodihydrofluorescein (DCF) by ROS.
Pooled primary HGEPps were propagated in CnT-Prime epithelial culture medium provided by CellnTec on 100 mm petri dishes coated with 30 mg/ml Type I rat tail collagen (BD Biosciences) diluted in Dulbecco's phosphate-buffered saline (DPBS). […] The cells were harvested when they reached 70-90% confluency as observed by light microscopy. For routine cultivation, the medium was changed every 3 days. […]
Oxidative Stress Measurement ROS Assay (OxiSelect Kit) • 1. […] Once the HGEPp cells were cultured and ready on a microplate, the media was removed from all the wells and discarded. […] Fluorescence was read on a Fluorescence Plate Reader after 1 hour. […] Transferred 150 μL of the mixture to a fresh 24-well plate for fluorescence measurements at 530 nm. […]
Intracellular ROS was measured using a Spectramax M3 microplate reader.

OO [Sample H2O2, hydrogen peroxide]
IC50 [1]: 300 µM
ROS levels compared to normal control cells (100%) [2]: 128%
